Experiment [1] addresses PD-1/PD-L1 protein/protein interaction (recombinant human PD-L1 and human PD-1) (Homo sapiens (Human), UniProt Q9NZQ7). In words: Homogeneous Time-Resolved Fluorescence (HTRF) PD-1/PD-L1 binding assay. The protocol: Example A. Homogeneous Time-Resolved Fluorescence (HTRF) PD-1/PD-L1 Binding Assay
The assays were conducted in a standard black 384-well polystyrene plate with a final volume of 20 μL. Inhibitors were first serially diluted in DMSO and then added to the plate wells before the addition of other reaction components. The final concentration of DMSO in the assay was 1%. The assays were carried out at 25° C. in the PBS buffer (pH 7.4) with 0.05% Tween-20 and 0.1% BSA. Recombinant human PD-L1 protein (19-238) with a His-tag at the C-terminus was purchased from AcroBiosystems (PD1-H5229). Recombinant human PD-1 protein (25-167) with Fc tag at the C-terminus was also purchased from AcroBiosystems (PD1-H5257). PD-L1 and PD-1 proteins were diluted in the assay buffer and 10 μL was added to the plate well. Plates were centrifuged and proteins were preincubated with inhibitors for 40 minutes. The incubation was followed by the addition of 10 μL of HTRF detection buffer supplemented with Europium cryptate-labeled anti-human IgG (PerkinElmer-AD0212) specific for Fc and anti-His antibody conjugated to SureLight®-Allophycocyanin (APC, PerkinElmer-AD0059H). After centrifugation, the plate was incubated at 25° C. for 60 min. before reading on a PHERAstar FS plate reader (665 nm/620 nm ratio). Final concentrations in the assay were—3 nM PD1, 10 nM PD-L1, 1 nM europium anti-human IgG and 20 nM anti-His-Allophycocyanin. IC50 determination was performed by fitting the curve of percent control activity versus the log of the inhibitor concentration using the GraphPad Prism 5.0 software.
(In TR-FRET formats the signal depends on donor and acceptor labels being close together.)

For experiment [2], the system named is U2OS/PD-L1 cells and Jurkat-PD-1-SHP cells. As to the kind of experiment: Src homology region 2 domain-containing phosphatase (SHP) assay. It counts as cell-based. Particulars: Homo sapiens, U2OS. Here is the method:
Example B. Src Homology Region 2 Domain-Containing Phosphatase (SHP) Assay
U2OS/PD-L1 cells (DiscoveRx Corporation) were maintained in McCoy's 5A medium with addition of 10% FBS, 0.25 μg/ml Puromycin. After removing the culture media, the cell medium was replaced with assay medium (RPMI1640 medium with 1% FBS). The U2OS/PD-L1 cells were then added in 384-well black clear bottom assay plate (CELLCOAT® Tissue Culture Plates, Greiner Bio-One) at 5000 cells per well in 20 μL assay medium. Test compounds were prepared by serial dilution in DMSO and 125 nL compound were first transferred to the 384 REMP plate well (Thermofisher) by ECHO liquid handler (Labcyte) followed with addition of 27.5 μL assay medium. 5 μL/well compounds in the assay medium were transferred to the cell plate with 0.05% DMSO in the final assay at […]. Jurkat-PD-1-SHP cells (DiscoveRx Corporation) were cultured in RPMI1640 medium supplemented with 10% FBS, 250 μg/ml Hygromycin B, 500 μg/ml G418. After the replacement of culture media with assay medium, 5,000 Jurkat-PD-1-SHP cells in 20 μL were dispensed into each well. The assay plate was incubated at 37° C., 5% CO2 for 2 hours before 2.5 μL PathHunter reagent 1 (DiscoveRx Corporation) were added to each well. The assay plate was shaken for 1 min at 350 rpm in the dark followed with addition of 10 μL PathHunter reagent 2 (DiscoveRx Corporation). Chemiluminescent signal was recorded with TopCount reader (Perkin Elmer) after incubation at room temperature for 1 hour. Wells with DMSO were served as the positive controls and wells containing no cells were used as negative controls. IC50 determination was performed by fitting the curve of percentage of control activity versus the log of the compound concentration using the GraphPad Prism 6.0 software.

The subject of experiment [3] is PD-L1 aAPC/CHO-K1 cells and Jurkat-PD-1-NFAT effector cells. As to the kind of experiment: Nuclear factor of activated T-cells (NFAT) assay. It is filed as cell-based. The settings on record: Cricetulus griseus, CHO-K1. Here is the method: Example C. Nuclear Factor of Activated T-Cells (NFAT) Assay
PD-L1 aAPC/CHO-K1 cells (Promega) were maintained in F-12 medium with addition of 10% FBS, 200 μg/ml Hygromycin B, 250 μg/ml Geneticin (G418). Jurkat-PD-1-NFAT effector cells (Promega) were cultured in RPMI 1640 medium supplemented with 10% FBS, 100 μg/ml Hygromycin B, 500 μg/ml G418. The culture media of PD-L1 aAPC/CHO-K1 cells were first replaced with assay medium (RPMI1640 medium with 1% FBS). The PD-L1 aAPC/CHO-K1 cells were then added in a white 384-well white clear bottom assay plate (CELLCOAT® Tissue Culture Plates, Greiner Bio-One) at 8000 per well in 10 μL assay medium. Test compounds were prepared by serial dilution in DMSO and 0.8 μL test compounds in DMSO were first transferred to the 384 REMP plate well (Thermofisher) by PlateMate Plus (Thermofisher) followed with addition of 50 μL plating medium. 5 μL compounds in the assay medium were transferred to the cells with 0.4% DMSO in the final assay at 2 μM. After removing the culture media, 10,000 Jurkat-PD-1-NFAT effector cells in 5 μL assay medium was dispensed into each well. The assay plate was incubated at 37° C., 5% CO2 for 24 hours. After the assay plate was equilibrated to room temp for 15 minutes, 20 µL/well of Bio-Glo™ reagent (Promega) were added. After 8 minutes incubation at room temperature, luminescence was read at with Pherastar microplate reader (BMG Labtech). The fold of induction (FOI) was calculated based on the ratio of luminescence normalized to the DMSO wells within each assay plate. The maximum percentage of induction was reported based on the ratio between the highest FOI of each compound and the maximum FOI of control compound within each assay plate. Wells with DMSO were served as the negative controls and wells containing control compound with the highest FOI were used as positive controls. EC50 determination was performed by fitting the curve of percent control activity versus the log of the compound concentration using the GraphPad Prism 6.0 software.

Sequence of PD-1/PD-L1 protein/protein interaction (recombinant human PD-L1 and human PD-1) (Q9NZQ7 19-238): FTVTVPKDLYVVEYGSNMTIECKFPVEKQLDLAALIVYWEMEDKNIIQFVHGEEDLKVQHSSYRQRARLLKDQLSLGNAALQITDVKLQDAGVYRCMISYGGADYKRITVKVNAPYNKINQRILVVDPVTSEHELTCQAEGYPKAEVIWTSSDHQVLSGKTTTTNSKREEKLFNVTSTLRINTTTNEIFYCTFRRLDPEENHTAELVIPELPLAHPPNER

In general, IC50 refers to the point on the concentration scale where inhibition reaches its midpoint. In general, EC50 refers to the concentration giving half of the maximal effect. A higher EC50 goes with a less potent agent. For `Cc1c(NC(=O)c2nc3c(n2C)CCN(C)C3)cccc1-c1cccc(NC(=O)c2nc3c(n2C)CCN(CCC24CCC(C(=O)O)(CC2)C4)C3)c1Cl` [Example 29, 4-(2-(2-((2-chloro-3′-(1,5-dimethyl-4,5,6,7-tetrahydro-1H-imidazo[4,5-c]pyridine-2-carboxamido)-2′-methyl-[1,1′-biphenyl]-3-yl)carbamoyl)-1-methyl-1,4,6,7-tetrahydro-5H-imidazo[4,5-c]pyridin-5-yl)ethyl)bicyclo[2.2.1]heptane-1-carboxylic acid], the results for the IC50 in experiment [1] and in experiment [2] were no more than 5 nM and no more than 10 nM, respectively. The EC50 in experiment [3] is 10 to 100 nM.

For `Cc1c(NC(=O)c2nc3c(n2C)CCN(CCC24CCC(C(=O)O)(CC2)C4)C3)cccc1-c1cccc(NC(=O)c2nc3c(n2C)CCN(C)C3)c1Cl` [Example 39, 4-(2-(2-((2′-chloro-3′-(1,5-dimethyl-4,5,6,7-tetrahydro-1H-imidazo[4,5-c]pyridine-2-carboxamido)-2-methyl-[1,1′-biphenyl]-3-yl)carbamoyl)-1-methyl-1,4,6,7-tetrahydro-5H-imidazo[4,5-c]pyridin-5-yl)ethyl)bicyclo[2.2.1]heptane-1-carboxylic acid], the IC50 in experiment [1] is no more than 5 nM; in experiment [2] it was no more than 10 nM. The molecule further showed a half-maximal effective concentration (EC50) in experiment [3] of 10 to 100 nM.

As to `Cn1c(C(=O)Nc2cccc(-c3cccc(NC(=O)c4nc5c(n4C)CCNC5)c3C#N)c2Cl)nc2c1CCN(CCC13CCC(C(=O)O)(CC1)C3)C2` [Example 46, 4-(2-(2-((2-chloro-2′-cyano-3′-(1-methyl-4,5,6,7-tetrahydro-1H-imidazo[4,5-c]pyridine-2-carboxamido)-[1,1′-biphenyl]-3-yl)carbamoyl)-1-methyl-1,4,6,7-tetrahydro-5H-imidazo[4,5-c]pyridin-5-yl)ethyl)bicyclo[2.2.1]heptane-1-carboxylic Acid], the results for the half-inhibitory concentration (IC50) in experiment [1] and in experiment [2] were no more than 5 nM and no more than 10 nM, respectively. Further, in experiment [3], the concentration giving a half-maximal response (EC50) is 10 to 100 nM.

With `CN1CCc2c(nc(C(=O)Nc3cccc(-c4cccc(NC(=O)c5nc6c(n5C)CCN(CCC57CCC(C(=O)O)(CC5)C7)C6)c4Cl)c3C#N)n2C)C1` [Example 48, 4-(2-(2-((2-chloro-2′-cyano-3′-(1,5-dimethyl-4,5,6,7-tetrahydro-1H-imidazo[4,5-c]pyridine-2-carboxamido)-[1,1′-biphenyl]-3-yl)carbamoyl)-1-methyl-1,4,6,7-tetrahydro-5H-imidazo[4,5-c]pyridin-5-yl)ethyl)bicyclo[2.2.1]heptane-1-carboxylic acid], the figures for the concentration for half-maximal inhibition (IC50) in experiment [1] and in experiment [2] were no more than 5 nM and no more than 10 nM, respectively. Besides, in experiment [3], the EC50 lay within 10 to 100 nM.

In the case of `Cn1c(C(=O)Nc2cccc(-c3cccc(NC(=O)c4nc5c(n4C)CCN(CC46CCC(C(=O)O)(CC4)C6)C5)c3C#N)c2Cl)nc2c1CCN(CCC13CCC(C(=O)O)(CC1)C3)C2` [Example 52, 4-((2-((3′-(5-(2-(4-carboxybicyclo[2.2.1]heptan-1-yl)ethyl)-1-methyl-4,5,6,7-tetrahydro-1H-imidazo[4,5-c]pyridine-2-carboxamido)-2′-chloro-2-cyano-[1,1′-biphenyl]-3-yl)carbamoyl)-1-methyl-1,4,6,7-tetrahydro-5H-imidazo[4,5-c]pyridin-5-yl)methyl)bicyclo[2.2.1]heptane-1-carboxylic acid], the 50% inhibitory concentration (IC50) in experiment [1] was no more than 5 nM; in experiment [2] it was 10 to 100 nM. Moreover, the EC50 in experiment [3] lay in the range of 100 to 500 nM.

For the molecule `Cc1c(NC(=O)c2nc3c(n2C)CCNC3)cccc1-c1cccc(NC(=O)c2nc3c(n2C)CCN(CCC24CCC(C(=O)O)(CC2)C4)C3)c1C` [Example 53, 4-(2-(2-((2,2′-dimethyl-3′-(1-methyl-4,5,6,7-tetrahydro-1H-imidazo[4,5-c]pyridine-2-carboxamido)-[1,1′-biphenyl]-3-yl)carbamoyl)-1-methyl-1,4,6,7-tetrahydro-5H-imidazo[4,5-c]pyridin-5-yl)ethyl)bicyclo[2.2.1]heptane-1-carboxylic Acid], the figures for the 50% inhibitory concentration (IC50) in experiment [1] and in experiment [2] were no more than 5 nM and no more than 10 nM, respectively. In addition, the EC50 in experiment [3] was in the range of 10 to 100 nM.

Consider `Cc1c(NC(=O)c2nc3c(n2C)CCN(CCC24CCC(C(=O)O)(CC2)C4)C3)cccc1-c1cccc(NC(=O)c2nc3c(n2C)CCN(CC24CCC(C(=O)O)(CC2)C4)C3)c1C` [Example 55, 4-((2-((3′-(5-(2-(4-carboxybicyclo[2.2.1]heptan-1-yl)ethyl)-1-methyl-4,5,6,7-tetrahydro-1H-imidazo[4,5-c]pyridine-2-carboxamido)-2,2′-dimethyl-[1,1′-biphenyl]-3-yl)carbamoyl)-1-methyl-1,4,6,7-tetrahydro-5H-imidazo[4,5-c]pyridin-5-yl)methyl)bicyclo[2.2.1]heptane-1-carboxylic acid], for which the IC50 in experiment [1] is no more than 5 nM; in experiment [2] it was no more than 10 nM. For the same molecule, the EC50 in experiment [3] lay within 10 to 100 nM.

As to `Cc1c(NC(=O)c2nc3c(n2C)CCN(CCO)C3)cccc1-c1cccc(NC(=O)c2nc3c(n2C)CCN(CCC24CCC(C(=O)O)(CC2)C4)C3)c1C` [Example 59, 4-(2-(2-((3′-(5-(2-hydroxyethyl)-1-methyl-4,5,6,7-tetrahydro-1H-imidazo[4,5-c]pyridine-2-carboxamido)-2,2′-dimethyl-[1,1′-biphenyl]-3-yl)carbamoyl)-1-methyl-1,4,6,7-tetrahydro-5H-imidazo[4,5-c]pyridin-5-yl)ethyl)bicyclo[2.2.1]heptane-1-carboxylic acid], the 50% inhibitory concentration (IC50) in experiment [1] is no more than 5 nM; in experiment [2], no more than 10 nM. This molecule also had a 50% effective concentration (EC50) in experiment [3] of 100 to 500 nM.

(Values after patent publication US10618916B2, “Heterocyclic compounds as immunomodulators” (Incyte Corporation, priority 2018, dated 2020).)
